Results on eight molecules are retold here after US20140066498A1, “TRITERPENOID DERIVATIVES, BENZENOID DERIVATIVES, AND PHARMACEUTICAL COMPOSITIONS CONTAINING THE SAME” (National Cheng Kung University, priority 2010, published 2014).

Values after ≈ are worked out from the molar mass of the structure shown. Read-outs that look alike come from different tables or passages of the source.

Series [1] concerns the target T1, nitric oxide synthase (NOS) (Mus musculus, UniProt P29477).
T1 sequence (P29477 1-1144): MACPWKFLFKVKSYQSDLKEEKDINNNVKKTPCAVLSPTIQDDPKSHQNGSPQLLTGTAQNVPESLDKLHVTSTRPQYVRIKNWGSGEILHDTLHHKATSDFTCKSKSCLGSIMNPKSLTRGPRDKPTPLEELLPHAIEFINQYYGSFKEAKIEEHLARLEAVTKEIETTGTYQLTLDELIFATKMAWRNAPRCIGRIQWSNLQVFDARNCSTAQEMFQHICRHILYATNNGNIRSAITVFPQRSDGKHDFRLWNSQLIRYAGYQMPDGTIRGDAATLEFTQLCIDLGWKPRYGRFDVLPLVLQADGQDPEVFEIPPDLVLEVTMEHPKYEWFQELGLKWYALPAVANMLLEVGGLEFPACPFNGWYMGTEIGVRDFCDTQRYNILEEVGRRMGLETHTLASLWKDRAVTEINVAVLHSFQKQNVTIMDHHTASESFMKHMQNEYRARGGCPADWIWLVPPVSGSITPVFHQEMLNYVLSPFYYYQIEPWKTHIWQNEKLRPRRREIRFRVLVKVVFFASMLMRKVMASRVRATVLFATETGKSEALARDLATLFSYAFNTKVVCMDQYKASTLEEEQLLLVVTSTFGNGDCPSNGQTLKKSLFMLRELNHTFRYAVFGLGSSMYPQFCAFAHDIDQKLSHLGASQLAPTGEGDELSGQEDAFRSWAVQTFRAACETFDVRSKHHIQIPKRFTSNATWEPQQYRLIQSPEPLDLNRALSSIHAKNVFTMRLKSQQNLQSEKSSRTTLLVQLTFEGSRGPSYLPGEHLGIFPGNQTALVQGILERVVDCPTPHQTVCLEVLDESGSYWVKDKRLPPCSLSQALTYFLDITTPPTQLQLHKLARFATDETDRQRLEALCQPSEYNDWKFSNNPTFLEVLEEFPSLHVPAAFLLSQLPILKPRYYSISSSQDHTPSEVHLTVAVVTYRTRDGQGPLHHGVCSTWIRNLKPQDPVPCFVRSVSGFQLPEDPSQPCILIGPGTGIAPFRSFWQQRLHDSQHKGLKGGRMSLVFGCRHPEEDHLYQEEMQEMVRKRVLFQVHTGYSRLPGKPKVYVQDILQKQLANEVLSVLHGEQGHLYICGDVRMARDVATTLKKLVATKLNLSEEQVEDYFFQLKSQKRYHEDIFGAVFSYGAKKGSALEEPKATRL
Kind of series: NOS activity: LPS-induced NO production in murine microglial cells (BV2).
Protocol: Microglial cell culture and measurements of mitric oxide (NO). The murine microglial cell line (BV2) was cultured, and the production of NO was measured by the methods as previously described (Wang, Y. H.; Wang, W. Y.; Chang, C. C.; Liou, K. T.; Sung, Y. J.; Liao, J. F.; Chen, C. F.; Chang, S.; Hou, Y. C.; Chou, Y. C.; Shen, Y. C. J. Biomed. Sci. 2006, 13, 127-141).

For series [2], the system named is Daoy (human medulloblastoma). Kind of series: MTT cytotoxicity assay, Daoy. It is filed as cell-based. To be noted: Daoy cell line. The method, then:
(§1) Compounds II-7-II-9, II-13, II-14, II-20, II-21, II-25-II-33, and II-36 were assayed for cytotoxic activity against Doay (human medulloblastoma), Hep2 (human laryngeal carcinoma), MCF-7 (human breast adenocarcinoma), and Hela (human cervical epitheloid carcinoma) cell lines, using a MTT assay method.
On the technique in general: Formazan colour is commonly taken as a measure of viable cells.

Series [3] deals with Hep2 (human laryngeal carcinoma). The series can be described thus: MTT cytotoxicity assay, Hep2. It is filed as cell-based. To be noted: Hep2 cell line. The method, then: as §1
Series [4] has as its system MCF-7 (human breast adenocarcinoma). The series can be described thus: MTT cytotoxicity assay, MCF-7. The following applies: MCF-7 cell line. It is filed as cell-based. The method, then: as §1
Series [5] relates to KB-VIN (multidrug-resistant strain). Kind of series: Cytotoxicity assay against KB-VIN cells in vitro. It is filed as cell-based, human.
In series [6] the test system is Hela (human cervical epitheloid carcinoma). The series can be described thus: MTT cytotoxicity assay, Hela. It counts as cell-based. To be noted: Hela cell line. The method, then:
as §1

A further series deals with KB (human cancer cell). Kind of series: Cytotoxicity assay against KB cells in vitro. The following applies: NA@20 given for inactive. It counts as cell-based.
Series [7] concerns the target NADPH oxidase (NOX) (Mus musculus, UniProt Q61093). It is filed as biochemical, murine. The following applies: ROS production triggered with NADPH (200 μM), 1-50 μM test drug, BV2 cell lysate; mean ± S.E.M., 3-6 experiments; read-out: IC50 (μM) in NOX activity from BV2 cell lysate.
Series [8] addresses NADPH oxidase (NOX) (Homo sapiens, UniProt P04839). It is filed as cell-based. To be noted: ROS production triggered with fMLP (2 μM), 1-50 μM test drug, peripheral human neutrophils; mean ± S.E.M.; read-out: IC50 (μM) in NOX fMLP-induced NOX activation in PMN.
In series [9] the test system is P-388 murine leukemia cells. The following applies: in vitro, previous studies; cited from earlier work.
Setting [10] is: read-out: IC50 (μM) in NOS, LPS-induced NO production in BV2 cells, 1-50 μM test drug, mean ± S.E.M.

What is called IC50 is the point on the concentration scale where inhibition reaches its midpoint. In general, melting point refers to the temperature, or range, at which the solid turns liquid. Turning to `C=C(CC[C@@H](C)[C@H]1CC[C@@H]2C3=C(C(=O)C[C@@]21C)[C@@]1(C)CCC(=O)[C@@H](C)C1CC3)C(C)C(=O)OC` (stereo partly drawn) [Compound I-10, methyl-3,11-dioxo-4α-methyl-14β-ergosta-8,24(28)-dien-26-oate], the melting point lay in the range of 100 to 102 °C. The same molecule had an IC50 in [1] of 1.6 µM. For the same molecule, the “ED50 (μg/mL) Daoy” value in [2] is “—^a (ED50 > 20 μg/mL)”. Besides, the “ED50 (μg/mL) Hep2” value in series [3] is “— (ED50 > 20 μg/mL)”. Besides, in series [4], the “ED50 (μg/mL) MCF-7” value stood at 8.7 µg/mL (≈ 18.6 µM). The “EC50 (μM) KB-VIN” value in [5] is “NA@20”. Also, in series [6], the “ED50 (μg/mL) Hela” value came to 11.3 µg/mL (≈ 24.1 µM). In the series on KB (human cancer cell), the “EC50 (μM) KB” value was “NA@20”.

Usually EC50 stands for the concentration needed to bring the measured effect to its halfway point. Low readings indicate a more potent agent, high ones a less potent agent. Turning to `C=C(CC[C@@H](C)[C@H]1CC[C@H]2C3=C(C(=O)[C@H](O)[C@]12C)[C@@]1(C)CC[C@@H](O)[C@@H](C)[C@@H]1CC3=O)C(C)C(=O)O` (stereo partly drawn) [Compound I-13, zhankuic acid C], the results for the IC50 (in series [1] (setting [10]); at NADPH oxidase (NOX) [7]) were 16.2 ± 0.9 µM and 40.3 ± 3.5 µM, respectively. Also, the concentration for a half-maximal effect (EC50) stood at 6.4 µM in series [5] and 15.5 µM in the series on KB (human cancer cell).

`C=C(CC[C@@H](C)[C@H]1CC[C@H]2C3=C(C(=O)C[C@]12C)[C@@]1(C)CCC(=O)[C@@H](C)[C@@H]1CC3)C(C)C(=O)O` (stereo partly drawn) [Compound I-15, antcin A]: the figures for the IC50 (in series [1] (setting [10]); at NADPH oxidase (NOX) [7]; on NADPH oxidase (NOX) [8]) were 4.1 ± 0.5 µM, 45.9 ± 7.9 µM and 29.2 ± 6.7 µM, respectively. Further, the “ED50 (μg/mL) Daoy” value in series [2] was 13.2 µg/mL (≈ 29 µM). For the same molecule, the “ED50 (μg/mL) Hep2” value in series [3] is “— (ED50 > 20 μg/mL)”. Moreover, the “ED50 (μg/mL) MCF-7” value in series [4] was 13.3 µg/mL (≈ 29.3 µM). The figures for the EC50 (in series [5]; in the series on KB (human cancer cell)) were 10 µM and 4.9 µM, respectively. Moreover, the “ED50 (μg/mL) Hela” value in series [6] is given as “— (ED50 > 20 μg/mL)”.

`c1ccc2c(c1)[I+]c1ccccc1-2` [DPI, Diphenyleneiodonium, reference compound]: on NADPH oxidase (NOX) [7], the IC50 came to 0.4 µM.

Turning to `C=C(C)C#Cc1c(OC)cc(OC)c(OC)c1C` [II-9, antrocamphin A], the figures for the half-maximal inhibitory concentration (IC50) (in series [1] (setting [10]); at NADPH oxidase (NOX) [7]; at NADPH oxidase (NOX) [8]) were 7.2 ± 1 µM, 50.1 ± 3.3 µM and 15.1 ± 4.1 µM, respectively. In addition, the “ED50 (μg/mL) Daoy” value in series [2] was 5.9 µg/mL (≈ 24 µM). In series [3], the “ED50 (μg/mL) Hep2” value was determined as 10.5 µg/mL (≈ 42.6 µM). Moreover, the “ED50 (μg/mL) MCF-7” value in series [4] turned out to be 3.4 µg/mL (≈ 13.8 µM). Moreover, the “ED50 (μg/mL) Hela” value in series [6] is 6.9 µg/mL (≈ 28 µM).

Turning to `C=C(CC[C@@H](C)[C@H]1CC[C@H]2C3=C(C(=O)C[C@]12C)[C@@]1(C)CCC(=O)[C@@H](C)[C@@H]1CC3=O)C(C)C(=O)O` (stereo partly drawn) [zhankuic acid A], the “cytotoxicity against P-388 murine leukemia cells” value in series [9] is given as “significant cytotoxicity”.

Consider `C=C(CC[C@@H](C)[C@H]1CC[C@H]2C3=C(C(=O)[C@H](O)[C@]12C)[C@@]1(C)CC[C@@H](O)[C@@H](C)[C@@H]1CC3=O)C(C)C(=O)O` (stereo partly drawn) [zhankuic acid C], for which, in [9], the “cytotoxicity against P-388 murine leukemia cells” value is “significant cytotoxicity”.

Take methyl antcinate H [Compound I-18]: the half-inhibitory concentration (IC50) in series [1] (setting [10]) is 2.5 µM; at NADPH oxidase (NOX) [7], 16 ± 8.1 µM; on NADPH oxidase (NOX) [8], 18.1 ± 5.9 µM. In addition, the “EC50 (μM) KB-VIN” value in [5] was “NA@20”. The “EC50 (μM) KB” value in the series with KB (human cancer cell) was “NA@20”.
